What was measured:
in vitro [1] = conditions: human
in vitro [2] = conditions: African green monkey
SFTSV [3] = format: cell-based, Severe fever with thrombocytopenia syndrome virus
SFTSV [4] = assay: microbe, parasite or virus in culture; format: cell-based, Severe fever with thrombocytopenia syndrome virus; conditions: for IC50: Severe fever with thrombocytopenia syndrome virus, HUVEC
SFTSV [5] = assay: microbe, parasite or virus in culture; format: cell-based; conditions: Severe fever with thrombocytopenia syndrome virus, Vero
SFTSV [6] = conditions: mouse, in vivo, ip, 1 mg/kg/day
SFTSV [7] = format: cell-based, Severe fever with thrombocytopenia syndrome virus; remark: listed apart in the source
SFTSV mini-genome = format: cell-based, Severe fever with thrombocytopenia syndrome virus
[8] = test system: Rift Valley fever virus (RVFV); assay: microbe, parasite or virus in culture; format: cell-based; conditions: HUVEC
SFTSV [9] = format: cell-based, Severe fever with thrombocytopenia syndrome virus; remark: listed apart in the source
SARS-CoV-2 [10] = format: cell-based
SARS-CoV-2 [11] = assay: microbe, parasite or virus in culture; format: cell-based; conditions: Severe acute respiratory syndrome coronavirus 2, Vero C1008
SFTSV [12] = format: cell-based, Severe fever with thrombocytopenia syndrome virus; remark: listed apart in the source
SFTSV [13] = test system: SFTSV; set-up: species or system C57BL/6 mice; conditions: mouse, in vivo, ip, 4 mg/kg/day
[14] = test system: Rift Valley fever virus (RVFV); format: cell-based
SFTSV [15] = format: cell-based, Severe fever with thrombocytopenia syndrome virus; remark: listed apart in the source
HUVEC cells = conditions: human
SFTSV [16] = format: cell-based, Severe fever with thrombocytopenia syndrome virus; remark: listed apart in the source

With O=C1OC[C@H]2OC(O)[C@H](O)[C@@H](O)[C@@H]2OC(=O)c2cc(O)c(O)c(O)c2-c2c(O)c(O)c3oc(=O)c4c(c(O)c(O)c5oc(=O)c2c3c54)-c2c1cc(O)c(O)c2O (mixture of isomers) [Punicalin, punicalin] the CC50 (in vitro [1]) was > 250 µM, the CC50 (in vitro [2]) was > 125 µM and the “virucidal effect on SFTSV virions” value (SFTSV [3]) was “directly inactivated virions in a dose dependent manner”. The SI (SFTSV [4]) was > 100, the IC50 (SFTSV [4]) was 2.5 µM and the IC50 (SFTSV [5]) was 3.8 µM.
In the case of CC(C)=CCCC(C)(O)C1CCC2(C)C1C(O)CC1C3(C)CCC(OC4OC(CO)C(O)C(O)C4OC4OC(CO)C(O)C(O)C4OC4OCC(O)C(O)C4O)C(C)(C)C3CCC12C (stereo not shown) [Notoginsenoside Ft1, notoginsenoside Ft1], the CC50 (in vitro [1]) is reported as ~62.5 µM, the CC50 (in vitro [2]) is reported as > 250 µM and the IC50 (SFTSV [4]) is reported as 11 µM. The IC50 (SFTSV [5]) was 3.5 µM.
With CC(=O)O[C@@H]1C[C@H](O)[C@@]23CO[C@@H](O)[C@]1(C)[C@@H]2C[C@@H](O)[C@]1(C)[C@@H]3C(=O)[C@H](OC(C)=O)[C@@]2(C)[C@H](c3ccoc3)C[C@H]3O[C@]321 [Toosendanin, toosendanin] the “megakaryocytes accumulation in spleens (H&E)” value (SFTSV [6]) was “reduced the megakaryocytes accumulation”, the “viral antigen in spleen sections (immunohistochemistry)” value (SFTSV [6]) was “less viral protein positive cells was detected” and the weight loss (SFTSV [6]) was “did not lead to weight loss”. The Number of particles (SFTSV [7]) was 20, the “amount of internalized viral particles (microscopy)” value (SFTSV [7]) was “significantly reduced the amount of internalized viral particles” and the “viral RNA replication and transcription (mini-genome)” value (SFTSV mini-genome) was “did not affect the viral RNA replication and transcription”. The CC50 (in vitro [1]) was > 250 µM, the IC50 [8] was 0.13 µM and the inhibition at 0.6 µM [8] was 72.6%. It also gave an inhibition at 1.8 µM [8] of 82%, an inhibition at 5.6 µM [8] of 95.5% and an inhibition at 16.7 µM [8] of 93.6%. The inhibition at 50 µM [8] was 95.1%, the “accumulation of vRNA (internalization), concentration series” value (SFTSV [9]) was “dose dependent inhibition effect on accumulation of vRNA” and the “relative intracellular vRNA (internalization)” value (SFTSV [9]) was “significantly reduced”. For the same compound, the “time-of-addition result, SARS-CoV-2” value (SARS-CoV-2 [10]) was “revealed inhibitory effect when added 1 h post infection”, the IC50 (SARS-CoV-2 [11]) was 0.24 µM and the inhibition at 0.21 µM (SARS-CoV-2 [11]) was 42%. For the same compound, the inhibition at 0.62 µM (SARS-CoV-2 [11]) was 84.6%, the inhibition at 1.85 µM (SARS-CoV-2 [11]) was 92.4% and the inhibition at 5.6 µM (SARS-CoV-2 [11]) was 99%. The inhibition at 16.7 µM (SARS-CoV-2 [11]) was 99.5%, the inhibition at 50 µM (SARS-CoV-2 [11]) was 99.9% and the “vRNA and viral protein expression, time of addition” value (SFTSV [12]) was “decreased significantly when toosendanin was added prior to but not post SFTSV infection”. For the same compound, the “antigen of SFTSV nucleoprotein in spleen sections” value (SFTSV [13]) was “reduced the antigen of SFTSV nucleoprotein in the spleen sections”, the “viral load in the serum” value (SFTSV [13]) was “significantly lower than that of the mice in the vehicle control group” and the “time-of-addition result, RVFV” value [14] was “inhibited the entry step of RVFV”. For the same compound, the “SFTSV binding (vRNA level of bound virions)” value (SFTSV [15]) was “did not inhibit SFTSV binding”, the “virucidal effect on SFTSV virions” value (SFTSV [3]) was “no virucidal effect” and the CC50 (HUVEC cells) was > 450 µM. For the same compound, the IC50 (SFTSV [4]) was 0.052 µM, the “syncytium formation (viral fusion)” value (SFTSV [16]) was “No significant difference of syncytium formation” and the IC50 (SFTSV [5]) was 1.2 µM.

Reference: paper PMC8632254 (Frontiers in Pharmacology, 2021)
